{"source": "patent US4567302A", "about": "“Polymeric quaternary ammonium salts possessing antimicrobial activity and methods for preparation and use thereof” (priority 1984, dated 1986)", "test_system": "microorganisms", "assay": "Biocidal activity evaluation, overall comparison in words", "format": "cell-based", "protocol": "The biocidal activity evaluations of the present invention quaternary ammonium salts and mixtures thereof as well as of commercially available biocides (for comparison purposes) were conducted using the Dynatech MIC-2000 system (available from Dynatech Laboratories, Inc., Alexandria, Va.). The Dynatech MIC-2000 system provides a quantitative factor, namely the specific concentration of the compound that inhibits the growth of a test organism.\nAll compounds were prepared for testing by initially making a 1.0% w/v solution. These were then serially diluted so as to yield concentrations of sample in a range of 2000-16 mg/l. Testing was carried out under aseptic conditions in Trypticase Soy Broth (BBL, Div. Becton, Dickinson & Co., Cockeysville, MD). Each test was performed in duplicate and run at pH levels of 7.0, 8.0, and 9.0. The pH of the test medium was adjusted by the addition of 10% w/v NaOH before sterilization.\nOrganisms utilized for MIC testing were all purchased from the American Type Culture Collection (ATCC), Rockville, MD. The six organisms chosen for these tests were:\nInocula were prepared in Brain Heart Infusion Broth (BHI, Difco Laboratories, Detroit, MI), and standardized to 3.0×10^8 CFU/ml in 0.85% sterile saline. […] Plates were read and evaluated at this time, and results reported in mg/l of compound that inhibited the growth of the test organisms.", "data": [{"smiles": "O=[N+]([O-])C(Br)(CO)CO", "note": "[Bronopol]", "values": [{"measurement": "biocidal activity (in words)", "result": "more active than the quaternary ammonium salts of the present invention"}]}]}
